Several values for one entry are separate records, joined by “and”; a condition that tells them apart may be missing. Identical values can stand only once. Like-named read-outs stand apart in the source and are kept apart here.
Legend:
healthy volunteers [1] = assay: Hyperinsulinemic euglycemic clamp (glucose utilization M, insulin sensitivity M/I); type: in vivo, human
Method: Peripheral sensitivity to glucose was assessed by the hyperinsulinemic euglycemic clamp technique. Subjects were admitted to the GCRC in the afternoon prior to the clamp procedure and maintained on a eucaloric diet (50% carbohydrate, 30% fat, and 20% protein). After an overnight fast, an intravenous catheter was placed in the antecubital vein for infusion of glucose and insulin. A second catheter for blood sampling was inserted in a dorsal vein of the hand in a retrograde fashion. The hand was placed into a 50°C warming box to "arterialize" the samples [20]. After baseline blood samples were obtained, a primed, continuous infusion of regular insulin (40 mU/m^2/min) was started, followed by a constant infusion of 20% dextrose at a variable rate, based on 5-minute measurements of blood glucose, in order to maintain blood glucose concentrations at each subject's baseline level ± 5%. Infusion continued for a total of 180 minutes.
Glucose utilization (M) was calculated as the average glucose infusion rate (milligrams of glucose/kilograms of FFM/minute) during the last 60 minutes of the infusion (i.e. steady state portion). FFM was derived from the baseline evaluation by dual energy X-ray absorptiometry (DXA).
During the final 60 minutes of the insulin clamp procedure, samples were obtained at 10 minutes intervals to determine insulin concentrations. M divided by the average insulin concentration in the final 60 minutes (I), which represents the amount of glucose metabolized per unit of insulin, was used as the primary measure of insulin sensitivity. […] Fasting serum glucose and homeostasis model assessment of insulin resistance (HOMA-IR), a widely used marker of insulin sensitivity, were assessed prior to the insulin clamp procedure at each of the inpatient study visits.
We then multiplied this value by 10^6 for ease of interpretation.

healthy volunteers [2] = assay: Fasting serum glucose, HOMA-IR and body weight at inpatient visits; type: in vivo, human
Method: Body composition, including fat-free mass (FFM), was assessed at baseline using dual x-ray absorptiometry (Hologic-QDR 4500W, Hologic Co, Bedford, MA, intra-subject CV < 2%). BMI was assessed during each inpatient admission and was calculated as the weight in kilograms/height in meters squared.
During the final 60 minutes of the insulin clamp procedure, samples were obtained at 10 minutes intervals to determine insulin concentrations. M divided by the average insulin concentration in the final 60 minutes (I), which represents the amount of glucose metabolized per unit of insulin, was used as the primary measure of insulin sensitivity. During the second and third inpatient visits, the morning dose of IDV (and AG for the third inpatient visit) was given immediately prior to the beginning of the insulin clamp procedure. Fasting serum glucose and homeostasis model assessment of insulin resistance (HOMA-IR), a widely used marker of insulin sensitivity, were assessed prior to the insulin clamp procedure at each of the inpatient study visits.

healthy volunteers [3] = assay: Safety assessment in healthy volunteers; type: in vivo, human
Source text: There were no serious adverse events. Three subjects developed transaminitis. In one subject (as previously mentioned), an AST elevation 3 times the upper limit of normal (Grade 2) after 3 days of IDV required study discontinuation. Three subjects were noted to have mild elevations in bilirubin. […] One patient reported an episode of vomiting and one subject reported dyspepsia after dose administration. All laboratory abnormalities and symptoms normalized after discontinuation of the study drugs. With the exception of the Grade 2 transaminites, all adverse events occurred during the co-administration of IDV and AG.

[4] = for Cmin: GM (95%CI)
healthy volunteers [5] = conditions: cited from earlier work
clinical = conditions: human, plasma, oral

- difference in IDV AUC2–3 (IDV alone vs IDV and AG) ([4]; 10 subjects, p = 0.22): 430 ± 330 ng·h/mL
- Cmin ([4]; IDV + AG (Day 22), n = 13): 62.78 (39.72–99.24) ng/mL
- Cmin ([4]; IDV alone (Day 7), n = 13): 61.97 (42.72–89.88) ng/mL
- AUC0–8 Day 22/Day 7 Geometric Mean Ratio (90% CI) ([4]; IDV with vs without AG, n = 13): 0.89 (0.72–1.08)
- Cmax Day 22/Day 7 Geometric Mean Ratio (90% CI) ([4]; IDV with vs without AG, n = 13): 1.00 (0.77–1.29)
- tmax Day 22/Day 7 Geometric Mean Ratio (90% CI) ([4]; IDV with vs without AG, n = 13): 0.75 (0.53–1.06)
- AUC (clinical): 1920 ± 483 ng·h/mL
- AUC (clinical; 800 mg): 2350 ± 389 ng·h/mL
- Cmax (clinical; 800 mg): 5620 ng/mL
- Tmax (clinical; 800 mg): 58.8 min
SMILES: CC(C)(C)NC(=O)[C@@H]1CN(Cc2cccnc2)CCN1C[C@@H](O)C[C@@H](Cc1ccccc1)C(=O)N[C@H]1c2ccccc2C[C@H]1O [IDV, Indinavir]
- average decrease in insulin sensitivity (M/I) compared to baseline (healthy volunteers [1]; after 3 days of IDV 800 mg q8h, n = 11, p = 0.03): 14.8 ± 5.9% and 15%
- insulin sensitivity (M/I), mean (healthy volunteers [1]; after 3 days of IDV, n = 11, mean ± SEM, baseline 0.113 ± 0.012): 0.096 ± 0.014 mg/kg FFM/min per μU/ml of insulin
- average glucose utilization (M) (healthy volunteers [1]; after 3 days of IDV, n = 11, mean ± SEM, baseline 7.73 ± 0.75, p = 0.005): 6.32 ± 0.78 mg/kg FFM/min
- M/I divided by the IDV AUC2–3 (insulin sensitivity per unit of plasma IDV) (healthy volunteers [1]; post hoc, 10 subjects, IDV alone vs IDV + AG, p = 0.03): 60.9 ± 15.4 mg Glucose·10^6/kg FFM/min/μU/ml of insulin/ng·hr/mL IDV
- M (multiplied times 10^6) divided by the IDV AUC2–3 (healthy volunteers [1]; post hoc, 10 subjects, IDV alone vs IDV plus AG, p = 0.05): 4240.6 ± 1180.0 mg Glucose·10^6/kg FFM/min/ng·hr/mL IDV
- Glucose utilization (M), mean (healthy volunteers [1]; second (IDV alone) vs third (IDV + AG) clamp, ten subjects, mean ± SEM, p = 0.62): 6.68 ± 0.76 mg/kg FFM/min
- insulin sensitivity (M/I), mean (healthy volunteers [1]; second (IDV alone) vs third (IDV + AG) clamp, ten subjects, mean ± SEM, p = 0.72): 0.102 ± 0.013 mg/kg FFM/min per μU/ml of insulin
- Fasting glucose (healthy volunteers [2]; before vs after 2 weeks of AG, p = 0.65): 93.0 ± 1.4 mg/dL
- HOMA-IR (healthy volunteers [2]; before vs after 2 weeks of AG, p = 0.95): 1.4± 0.25
- HOMA-IR (healthy volunteers [2]; second admission (after 3 days IDV), baseline 1.34 ± 0.32, p = 0.97): 1.34 ± 0.23
- Fasting glucose (healthy volunteers [2]; second admission (after 3 days IDV), baseline 92.4 ± 1.8, p = 0.27): 95.0 ± 2.4 mg/dL
- tolerability (healthy volunteers [3]; healthy volunteers): well tolerated
- AST elevation (healthy volunteers [3]; one subject, Grade 2, after 3 days of IDV, required study discontinuation): 3 times the upper limit of normal
- decrease in insulin sensitivity (healthy volunteers [5]; healthy volunteers, IDV 800 mg q 8 hours): 17%
- decrease in insulin sensitivity (healthy volunteers [5]; single dose of 1200 mg): 34%
